Laboratory results from ChEMBL document CHEMBL1132434, “Antitumor benzothiazoles. 8. Synthesis, metabolic formation, and biological properties of the C- and N-oxidation products of antitumor 2-(4-aminophenyl)benzothiazoles” (J Med Chem, 1999).

Tests used:
MCF7 [1] = assay: In vitro cytotoxicity against MCF-7 human mammary carcinoma cells; format: functional, cell-based
SW-620 = assay: Growth inhibition of the SW-620 colon cancer cell line for 2-day in vitro assay.; format: functional; settings: Homo sapiens, SW-620, 48 h
M14 = assay: Growth inhibition of the M14 Melanoma cancer cell line for 2-day in vitro assay.; format: functional; settings: Homo sapiens, M14, 48 h
Malme-3M = assay: Growth inhibition of the MALME-3M Melanoma cancer cell line for 2-day in vitro assay.; format: functional; settings: Homo sapiens, 48 h
HCC 2998 = assay: Growth inhibition of the HCC2998 colon cancer cell line for 2-day in vitro assay.; format: functional; settings: Homo sapiens, HCC 2998, 48 h
ACHN = assay: Growth inhibition of the ACHN Renal cancer cell line for 2-day in vitro assay.; format: functional; settings: Homo sapiens, 48 h
MDA-MB-231 = assay: Growth inhibition of the […] Breast cancer cell line for 2-day in vitro assay.; format: functional; settings: Homo sapiens, MDA-MB-231, 48 h
OVCAR-8 = assay: Growth inhibition of the OVCAR-8 Ovarian cancer cell line for 2-day in vitro assay.; format: functional; settings: Homo sapiens, OVCAR-8, 48 h
MDA-MB-435 = assay: Growth inhibition of the […] Breast cancer cell line for 2-day in vitro assay.; format: functional; settings: Homo sapiens, MDA-MB-435, 48 h
OVCAR-4 = assay: Growth inhibition of the OVCAR-4 Ovarian cancer cell line for 2-day in vitro assay.; format: functional; settings: Homo sapiens, OVCAR-4, 48 h
DU-145 = assay: Growth inhibition of the DU-145 Prostate cancer cell line for 2-day in vitro assay.; format: functional; settings: Homo sapiens, DU-145, 48 h
HCT-116 = assay: Growth inhibition of the HCT116 colon cancer cell line for 2-day in vitro assay.; format: functional; settings: Homo sapiens, HCT-116, 48 h
SK-MEL-28 = assay: Growth inhibition of the SK-MEL-28 Melanoma cancer cell line for 2-day in vitro assay.; format: functional; settings: Homo sapiens, SK-MEL-28, 48 h
UO-31 = assay: Growth inhibition of the UO-31 Renal cancer cell line for 2-day in vitro assay.; format: functional; settings: Homo sapiens, UO-31, 48 h
MCF7 [2] = assay: Growth inhibition of the MCF-7 Breast cancer cell line for 2-day in vitro assay.; format: functional; settings: Homo sapiens, MCF7, 48 h
SF-268 = assay: Growth inhibition of the SF-268 CNS cancer cell line for 2-day in vitro assay.; format: functional; settings: Homo sapiens, SF-268, 48 h
NCI/ADR-RES = assay: Growth inhibition of the NCI/ADR-RES Breast cancer cell line for 2-day in vitro assay.; format: functional; settings: Homo sapiens, 48 h
SNB-19 = assay: Growth inhibition of the SNB19 CNS cancer cell line for 2-day in vitro assay.; format: functional; settings: Homo sapiens, SNB-19, 48 h
K562 = assay: Growth inhibition of the K-562 leukemia cell line for 2-day in vitro assay.; format: functional; settings: Homo sapiens, K562, 48 h
SK-OV-3 = assay: Growth inhibition of the SK-OV-3 Ovarian cancer cell line for 2-day in vitro assay.; format: functional; settings: Homo sapiens, SK-OV-3, 48 h
A498 = assay: Growth inhibition of the A498 Renal cancer cell line for 2-day in vitro assay.; format: functional; settings: Homo sapiens, A498, 48 h
U-251 = assay: Growth inhibition of the U251 CNS cancer cell line for 2-day in vitro assay.; format: functional; settings: Homo sapiens, U-251, 48 h
COLO 205 = assay: Growth inhibition of the COLO-205 colon cancer cell line for 2-day in vitro assay.; format: functional; settings: Homo sapiens, COLO 205, 48 h
A549 = assay: Growth inhibition of the A549/ATCC non-small cell lung cancer cell line for 2-day in vitro assay.; format: functional; settings: Homo sapiens, A549, 48 h
RXF 393 = assay: Growth inhibition of the RXF-393 Renal cancer cell line for 2-day in vitro assay.; format: functional; settings: Homo sapiens, RXF 393, 48 h
NCI-H322M = assay: Growth inhibition of the NCI-H322M non-small cell lung cancer cell line for 2-day in vitro assay.; format: functional; settings: Homo sapiens, 48 h
PC-3 = assay: Growth inhibition of the PC-3 Prostate cancer cell line for 2-day in vitro assay.; format: functional; settings: Homo sapiens, PC-3, 48 h
HCT-15 = assay: Growth inhibition of the HCT-15 colon cancer cell line for 2-day in vitro assay.; format: functional; settings: Homo sapiens, HCT-15, 48 h
EKVX = assay: Growth inhibition of the EKVX non-small cell lung cancer cell line for 2-day in vitro assay.; format: functional; settings: Homo sapiens, 48 h
NCI-H226 = assay: Growth inhibition of the NCI-H226 non-small cell lung cancer cell line for 2-day in vitro assay.; format: functional; settings: Homo sapiens, NCI-H226, 48 h
SR = assay: Growth inhibition of the SR leukemia cell line for 2-day in vitro assay.; format: functional; settings: Homo sapiens, 48 h
T47D = assay: Growth inhibition of the T-47D Breast cancer cell line for 2-day in vitro assay.; format: functional; settings: Homo sapiens, 48 h
UACC-257 = assay: Growth inhibition of the UACC-257 Melanoma cancer cell line for 2-day in vitro assay.; format: functional; settings: Homo sapiens, UACC-257, 48 h
BT-549 = assay: Growth inhibition of the BT-549 Breast cancer cell line for 2-day in vitro assay.; format: functional; settings: Homo sapiens, BT-549, 48 h
KM12 = assay: Growth inhibition of the KM12 colon cancer cell line for 2-day in vitro assay.; format: functional; settings: Homo sapiens, KM12, 48 h
NCI-H23 = assay: Growth inhibition of the NCI-H23 non-small cell lung cancer cell line for 2-day in vitro assay.; format: functional; settings: Homo sapiens, NCI-H23, 48 h
SF-539 = assay: Growth inhibition of the SF-539 CNS cancer cell line for 2-day in vitro assay.; format: functional; settings: Homo sapiens, SF-539, 48 h
SN12C = assay: Growth inhibition of the SN12C Renal cancer cell line for 2-day in vitro assay.; format: functional; settings: Homo sapiens, 48 h
Hs-578T = assay: Growth inhibition of the Hs 578.T Breast cancer cell line for 2-day in vitro assay.; format: functional; settings: Homo sapiens, 48 h
SNB-75 = assay: Growth inhibition of the SNB-75 CNS cancer cell line for 2-day in vitro assay.; format: functional; settings: Homo sapiens, SNB-75, 48 h
SK-MEL-5 = assay: Growth inhibition of the SK-MEL-5 Melanoma cancer cell line for 2-day in vitro assay.; format: functional; settings: Homo sapiens, SK-MEL-5, 48 h
NCI-H460 = assay: Growth inhibition of the NCI-H460 non-small cell lung cancer cell line for 2-day in vitro assay.; format: functional; settings: Homo sapiens, NCI-H460, 48 h
UACC-62 = assay: Growth inhibition of the UACC-62 Melanoma cancer cell line for 2-day in vitro assay.; format: functional; settings: Homo sapiens, UACC-62, 48 h
MDA-N = assay: Growth inhibition of the MDA-N Breast cancer cell line for 2-day in vitro assay.; format: functional; settings: Homo sapiens, 48 h
TK-10 = assay: Growth inhibition of the TK-10 Renal cancer cell line for 2-day in vitro assay.; format: functional; settings: Homo sapiens, TK-10, 48 h
SF-295 = assay: Growth inhibition of the SF-295 CNS cancer cell line for 2-day in vitro assay.; format: functional; settings: Homo sapiens, SF-295, 48 h
MOLT-4 = assay: Growth inhibition of the MOLT-4 leukemia cell line for 2-day in vitro assay.; format: functional; settings: Homo sapiens, MOLT-4, 48 h
NCI-H522 = assay: Growth inhibition of the NCI-H522 non-small cell lung cancer cell line for 2-day in vitro assay.; format: functional; settings: Homo sapiens, NCI-H522, 48 h
HOP-62 = assay: Growth inhibition of the HOP-62 non-small cell lung cancer cell line for 2-day in vitro assay.; format: functional; settings: Homo sapiens, HOP-62, 48 h
HL-60 = assay: Growth inhibition of the HL-60(TB) leukemia cell line for 2-day in vitro assay.; format: functional; settings: Homo sapiens, HL-60, 48 h
HT-29 = assay: Growth inhibition of the HT-29 colon cancer cell line for 2-day in vitro assay.; format: functional; settings: Homo sapiens, HT-29, 48 h
SK-MEL-2 = assay: Growth inhibition of the SK-MEL-2 Melanoma cancer cell line for 2-day in vitro assay.; format: functional; settings: Homo sapiens, SK-MEL-2, 48 h
CCRF-CEM = assay: Growth inhibition of the CCRF-CEM leukemia cell line for 2-day in vitro assay.; format: functional; settings: Homo sapiens, 48 h
786-0 = assay: Growth inhibition of the 786-O Renal cancer cell line for 2-day in vitro assay.; format: functional; settings: Homo sapiens, 786-0, 48 h
LOX IMVI = assay: Growth inhibition of the LOX IMVI Melanoma cancer cell line for 2-day in vitro assay.; format: functional; settings: Homo sapiens, 48 h

## CC(=O)Nc1ccc(-c2nc3cc(O)ccc3s2)cc1Cl
MCF7 [1]
  IC50: 31 µM

## Nc1ccc(-c2nc3ccccc3s2)cc1
MCF7 [1]
  IC50: < 0.001 µM

## CC(=O)Nc1ccc(-c2nc3ccccc3s2)cc1O
MCF7 [1]
  IC50: 9 µM

## Nc1ccc(-c2nc3ccc(O)cc3s2)cc1Cl
MCF7 [1]
  IC50: 54.5 µM

## Nc1ccc(-c2nc3cc(O)ccc3s2)cc1Cl
MCF7 [1]
  IC50: 60.6 µM

## Nc1ccc(-c2nc3ccccc3s2)cc1CO
MCF7 [1]
  IC50: 0.006 µM

## CC(=O)Nc1ccc(-c2nc3cc(O)ccc3s2)cc1C
MCF7 [1]
  IC50: 72.5 µM

## CC(=O)Nc1ccc(-c2nc3c(O)cccc3s2)cc1C
MCF7 [1]
  IC50: 33 µM

## Cc1cc(-c2nc3ccccc3s2)ccc1N
SW-620
  GI50: > 100 µM
M14
  GI50: 57.5 µM
Malme-3M
  GI50: > 100 µM
HCC 2998
  GI50: 0.251 µM
ACHN
  GI50: 51.3 µM
MDA-MB-231
  GI50: 66.1 µM
OVCAR-8
  GI50: > 100 µM
MDA-MB-435
  GI50: 79.4 µM
OVCAR-4
  GI50: 0.55 µM
DU-145
  GI50: 61.7 µM
HCT-116
  GI50: 43.7 µM
SK-MEL-28
  GI50: > 100 µM
UO-31
  GI50: 6.46 µM
MCF7 [2]
  GI50: 0.0316 µM
SF-268
  GI50: > 100 µM
NCI/ADR-RES
  GI50: 93.3 µM
SNB-19
  GI50: > 100 µM
K562
  GI50: 60.3 µM
SK-OV-3
  GI50: > 100 µM
A498
  GI50: 42.7 µM
U-251
  GI50: 66.1 µM
MCF7 [1]
  IC50: < 0.001 µM
COLO 205
  GI50: 51.3 µM
A549
  GI50: 28.8 µM
RXF 393
  GI50: 67.6 µM
NCI-H322M
  GI50: 43.7 µM
PC-3
  GI50: 31.6 µM
HCT-15
  GI50: 47.9 µM
EKVX
  GI50: 34.7 µM
NCI-H226
  GI50: 0.355 µM
SR
  GI50: 17.4 µM
T47D
  GI50: 0.107 µM
UACC-257
  GI50: 74.1 µM
BT-549
  GI50: 66.1 µM
KM12
  GI50: > 100 µM
NCI-H23
  GI50: 58.9 µM
SF-539
  GI50: > 100 µM
SN12C
  GI50: 50.1 µM
Hs-578T
  GI50: > 100 µM
SNB-75
  GI50: 33.1 µM
SK-MEL-5
  GI50: 21.9 µM
NCI-H460
  GI50: 53.7 µM
UACC-62
  GI50: 70.8 µM
MDA-N
  GI50: 97.7 µM
TK-10
  GI50: 0.186 µM
SF-295
  GI50: 64.6 µM
MOLT-4
  GI50: 19.5 µM
NCI-H522
  GI50: 32.4 µM
HOP-62
  GI50: > 100 µM
HL-60
  GI50: 8.71 µM
HT-29
  GI50: 29.5 µM
SK-MEL-2
  GI50: > 100 µM
CCRF-CEM
  GI50: 6.46 µM
786-0
  GI50: > 100 µM
LOX IMVI
  GI50: 37.2 µM

## Cc1cc(-c2nc3cc(O)ccc3s2)ccc1N
MCF7 [1]
  IC50: 78.7 µM

## Nc1ccc(-c2nc3c(O)cccc3s2)cc1Cl
MCF7 [1]
  IC50: 61.4 µM

## CC(=O)Nc1ccc(-c2nc3c(O)cccc3s2)cc1Cl
MCF7 [1]
  IC50: 56.8 µM
